Results as given in ChEMBL document CHEMBL4715717, “Analysis of the aplyronine A-induced protein-protein interaction between actin and tubulin by surface plasmon resonance” (Bioorg Med Chem, 2016).
Activity calls are given as the source filed them. The rule behind the calls is not given here.

How the values were obtained:
HeLa S3 = experiment: Cytotoxicity against human HeLa S3 cells assessed as reduction in cell viability measured after 96 hrs by MTT assay; assay type: functional, cell-based; conditions: HeLa S3, 96 h
[1] = biological target: Actin, alpha skeletal muscle (Oryctolagus cuniculus, UniProt P68135); experiment: Induction of rabbit skeletal muscle actin depolymerization measured after 120 mins by fluorescence assay
Homo sapiens [2] = organism: Homo sapiens; experiment: Induction of immobilized actin-tubulin (unknown origin) protein-protein interaction by SPR analysis
Homo sapiens [3] = organism: Homo sapiens; experiment: Inhibition of aplyronine A-actin complex-tubulin (unknown origin) protein-protein interaction at 1 equivalent by SPR analysis
Homo sapiens [4] = organism: Homo sapiens; experiment: Induction of microtubule (unknown origin) depolymerization pretreated with paclitaxel followed by compound treatment measured after 1 hr in presence of native and biotinylated tubulin and actin by ultracentrifugation
Homo sapiens [5] = organism: Homo sapiens; experiment: Binding affinity to actin (unknown origin) assessed as 1:1:1 ratio of actin-compound-tubulin heterodimer complex formation by measuring peak time in presence of 9:1 ratio of native/biotinylated tubulin by gel permeation HPLC analysis
Homo sapiens [6] = organism: Homo sapiens; experiment: Binding affinity to actin (unknown origin) assessed as 1:1:1 ratio of actin-compound-tubulin heterodimer complex formation by measuring molecular weight in presence of 9:1 ratio of native/biotinylated tubulin by gel permeation HPLC analysis
Homo sapiens [7] = organism: Homo sapiens; experiment: Binding affinity to actin (unknown origin) assessed as on rate constant for actin-compound-tubulin heterodimer complex
[8] = Binding affinity to actin (unknown origin) assessed as off rate constant for actin-compound-tubulin heterodimer complex; design: species or system Homo sapiens
[9] = Binding affinity to actin (unknown origin) assessed as dissociation constant for actin-compound-tubulin heterodimer complex at 25 degreeC; design: species or system Homo sapiens
Homo sapiens [10] = organism: Homo sapiens; experiment: Binding affinity to actin (unknown origin) assessed as dissociation constant for actin-compound-tubulin heterodimer complex at 8 degreeC
Homo sapiens [11] = organism: Homo sapiens; experiment: Binding affinity to actin (unknown origin) assessed as thermal stability of actin-compound-tubulin heterodimer complex at 25 degreeC
Homo sapiens [12] = organism: Homo sapiens; experiment: Binding affinity to actin (unknown origin) assessed as thermal stability of actin-compound-immobilized tubulin heterodimer complex
Homo sapiens [13] = organism: Homo sapiens; experiment: Binding affinity to streptavidin immobilized actin (unknown origin) assessed as on rate constant by SPR analysis
[14] = Binding affinity to streptavidin immobilized actin (unknown origin) assessed as off rate constant by SPR analysis; design: species or system Homo sapiens
[15] = Binding affinity to streptavidin immobilized actin (unknown origin) assessed as dissociation constant by SPR analysis; design: species or system Homo sapiens
Homo sapiens [16] = organism: Homo sapiens; experiment: Induction of aplyronine A-actin complex-tubulin (unknown origin) protein-protein interaction assessed as association of actin-aplyronine A-tubulin complex by SPR analysis
Homo sapiens [17] = organism: Homo sapiens; experiment: Induction of aplyronine A-actin complex-tubulin (unknown origin) protein-protein interaction assessed as actin-aplyronine A-tubulin ternary complex formation by SPR analysis

COCC(C(=O)O[C@@H]1C/C=C/C=C/C(=O)O[C@H]([C@@H](C)[C@@H](O)[C@@H](C)CC[C@@H](OC(=O)C(C)N(C)C)[C@H](C)[C@H](OC(C)=O)[C@H](C)/C=C/N(C)C=O)C/C=C/[C@H](OC)C[C@H](C)C/C=C(\C)[C@@H](OC)CC[C@@H](C)[C@@H](O)[C@@H]1C)N(C)C (some centres not stated) [APLYRONINE A]
IC50 (HeLa S3): 0.01 nM
Kd [1]: 100 nM
Activity (Homo sapiens [2]): inactive
inhibition (Homo sapiens [3]): 100%
Activity (Homo sapiens [4]): Active
TIME (Homo sapiens [5]): 0.265 h
Activity (Homo sapiens [6]): 145 kDa
Ka (Homo sapiens [7]): 4.78 10^4/M/s
Kd [8]: 8.82 10^-2/s
Kd [9]: 1840 nM
Ka (Homo sapiens [10]): 3 10^6/M
Activity (Homo sapiens [11]): inactive
Activity (Homo sapiens [12]): inactive

CO[C@H]1CC[C@@H](C)[C@@H](O)[C@H](C)[C@H](O)C/C=C/C=C/C(=O)O[C@H]([C@@H](C)[C@@H](O)[C@@H](C)CC[C@@H](OC(=O)C(C)N(C)C)[C@H](C)[C@H](OC(C)=O)[C@H](C)C/C=N/NC(=O)CCOCCOCCOCCOCCNC(=O)CCCC[C@@H]2SC[C@@H]3NC(=O)N[C@@H]32)C/C=C/[C@H](OC)C[C@H](C)C/C=C/1C (some centres not stated)
IC50 (HeLa S3): 700 nM
Ka (Homo sapiens [13]): 8.38 10^2/M/s
Kd [14]: 1.51 10^-2/s
Kd [15]: 18000 nM

COC[C@@H](OC)C(=O)O[C@H](CC[C@H](C)[C@H](C[C@@H]1OC(=O)C[C@@H](O)C/C=C/C(=O)[C@H](C)[C@H](OC)c2coc(n2)-c2coc(n2)-c2coc(n2)/C=C/C[C@H](OC)[C@H]1C)OC)[C@H](C)[C@H](OC(C)=O)[C@H](C)/C=C/N(C)C=O
Kd [1]: 13 nM
inhibition (Homo sapiens [3]): 100%

COCC(C(=O)O[C@@H]1C/C=C/C=C/C(=O)O[C@H]([C@@H](C)[C@@H](O)[C@@H](C)CC[C@@H](OC(=O)C(C)N(C)C)[C@H](C)[C@H](OC(C)=O)[C@H](C)C/C=N/NC(=O)CCOCCOCCOCCOCCNC(=O)CCCC[C@@H]2SC[C@@H]3NC(=O)N[C@@H]32)C/C=C/[C@H](OC)C[C@H](C)C/C=C(\C)[C@@H](OC)CC[C@@H](C)[C@@H](O)[C@@H]1C)N(C)C (some centres not stated)
IC50 (HeLa S3): 0.096 nM
Ka (Homo sapiens [13]): 4.54 10^3/M/s
Kd [14]: 1.83 10^-2/s
Kd [15]: 4020 nM

CO[C@H]1CC[C@@H](C)[C@@H](O)[C@H](C)[C@H](O)C/C=C/C=C/C(=O)O[C@H]([C@@H](C)[C@@H](O)[C@@H](C)CC[C@@H](OC(=O)C(C)N(C)C)[C@H](C)[C@H](OC(C)=O)[C@H](C)/C=C/N(C)C=O)C/C=C/[C@H](OC)C[C@H](C)C/C=C/1C (some centres not stated) [APLYRONINE C]
IC50 (HeLa S3): 17 nM
inhibition (Homo sapiens [3]): 100%

C/C1=C/C(=O)O[C@@H]2C[C@@H](CC[C@H](C)/C=C\C=C\CC1)O[C@@](O)([C@@H]1CSC(=O)N1)C2
Activity (Homo sapiens [16]): Active
Activity (Homo sapiens [17]): Active
